In paper PMC3210919 (Biochemistry, 2011):
Each block holds one compound with its values, some of them ahead of it.

Legend:
[1] = system: wild-type RePC (pyruvate carboxylase from R. etli); test: Pyruvate carboxylation activity, malate dehydrogenase coupled assay; type: biochemical, Rhizobium etli
[2] = system: PC from B. Thermodenitrificans; conditions: read-out: apparent Km for HCO3^−; presence of acetyl-CoA; ref [32]; cited from earlier work
wild-type RePC = wild-type RePC (Rhizobium etli, UniProt Q2K340); type: biochemical
sheep kidney PC = conditions: noncompetitive with respect to MgATP, full forward reaction; ref [22]; cited from earlier work
[3] = labelled substrate varied, others saturating, pH 7.5, 25° C, 0.25 mM acetyl-CoA
[4] = extrapolated to saturating phosphonoacetate

- Km [1, 3]: 10.8 ± 0.4 mM
- kcat [1, 3]: 11.7 ± 0.333 s⁻¹
Structure (SMILES): O=C(O)O [HCO3^−]
- Km [2]: 16 mM

Structure (SMILES): O=C(O)CP(=O)(O)O [phosphonoacetate]
- type of inhibition with respect to MgATP [1]: noncompetitive
- Kii (intercept inhibition constant) ([1]; linear noncompetitive with respect to MgATP, eqn (9)): 18 ± 7 mM
- fold lower Kii for MgADP phosphorylation than for pyruvate carboxylation (wild-type RePC): 890 fold
- fold lower Kis for MgADP phosphorylation than for pyruvate carboxylation (wild-type RePC): 100 fold
- type of inhibition with respect to carbamoyl phosphate (wild-type RePC): hyperbolic, noncompetitive inhibition
- V/Km at saturating phosphonoacetate, % of the uninhibited reaction (wild-type RePC; [4]): 1.5%
- Vmax at saturating phosphonoacetate, % of the uninhibited reaction (wild-type RePC; [4]): 1%
- Kii (intercept inhibition constant) (wild-type RePC; hyperbolic noncompetitive with respect to carbamoyl phosphate, eqn (10)): 0.021 ± 0.001 mM
- Ki (sheep kidney PC): 500 µM
